Source: patent US7655810B2, “Phosphine transition metal complex, method for producing the same, and antitumor agent containing the same” (Nippon Chemical Industrial Co., Ltd., priority 2005, dated 2010)

Assays:
[1] = system: HL-60 (human acute myelocytic leukemia cells); assay: Evaluation of antitumor activity, MTT viable cell count (modified Mosmann method); assay type: cell-based; details: read-out: IC50 (50% inhibitory concentration from viable cell count), HL-60 cells, 24 hours culture, average of at least three measured values
Method: Cisplatin was also evaluated as a comparative example by the same method.
HL-60 (human acute myelocytic leukemia cells) was used as cancer cells. The cells were cultured in Rosewell Park Memorial Institute medium (RPMI 1640) supplemented with 10% fetal bovine serum, 1% antibiotic, and an antifungal agent in an atmosphere of 5% carbon dioxide in a moist incubator at 37° C.
The cells were washed with PBS. After the cell count was determined, a suspension (1×10^5 cells/mL) was prepared with the same medium. The suspension was seeded at a density of […] in a sterile 96-well microplate.
The prepared solutions were respectively added to the wells and cultured in the incubator for 24 hours.
The viable cell count was determined by a modified Mosmann method (T. Mosmann, J. Immunol. Method (1983) 65, 55-63). More specifically, a solution of a tetrazolium salt (3,[4,5-dimethylthiazole-2-yl]-2,5-diphenyltetrazolium bromide, MTT) was added to the wells. The wells were cultured for another 3 hours under the same conditions. Formazan crystals formed by the enzyme activity of mitochondria in the cells were dissolved in 0.04 mol/L HCl isopropyl alcohol solution, and the absorbance of each well was measured at 595 nm with a microplate reader (Bio-Rad 550). The background noises were canceled by subtracting the absorbance at 630 nm from the absorbance at 595 nm to obtain a viable cell count. […] For the calculation for IC50, at least three measured values obtained under the same conditions were averaged.

[2] = system: female Sprauge-Dawley SPF rats; assay: Toxicity test by single oral administration to rats; assay type: in vivo, rat
Method: After female Sprauge-Dawley SPF rats (CrJ: CD (SD)) were quarantined and acclimated for about a week, healthy 8-week-old rats were selected in groups of five rats. The rats was fasted overnight before administration, and single oral doses of 20, 50, 100, and 300 mg/kg of the phosphine gold complex, and 10, 20, 50, and 100 mg/kg of cisplatin dissolved in corn oil were administrated the respective rats. The rats were observed 10 and 30 minutes and 1, 2, and 4 hours after administration, and further observed daily until the 14th day.

Substance | IC50 [1] | Change in general conditions, body weight and internal organs ([2]; single oral administration, over the period of the test (14 days)) | Survival of rats ([2]; single oral doses of 20, 50, 100 and 300 mg/kg, until the 14th day)
Bis((−)-1,2-bis((2S,5S)-2,5-dimethylphosphorano)ethane)gold (I) Chloride [Example 2] | 1660 nM |  | 
Bis(1,2-bis((2R,5R)-2,5-(dimethylphosphorano)benzene))gold (I) Chloride [Example 4] | 542 nM | no specific change in general conditions, body weight, and internal organs was observed | did not die even at the 14th day
Bis(1,2-bis((2S,5S)-2,5-(dimethylphosphorano)benzene))gold (I) Chloride [Example 3] | 3550 nM |  | 
Bis((+)-1,2-bis((2R,5R)-2,5-dimethylphosphorano)ethane)gold (I) Chloride [Example 1] | 2750 nM |  | 
